Assay results: publication PMC6468590, “Novel Flavivirus Antiviral That Targets the Host Nuclear Transport Importin α/β1 Heterodimer” (Cells, 2019)

Molecular target: T1, IMPα2 (importin α, IMPα) (Mus musculus, UniProt P52293)
T1 construct: gene Kpna2; full-length His6-IMPα2 and IMPαΔIBB (residues 67–529, ARM repeat domain)
Experiment: multi-wavelength analytical ultracentrifugation (co-sedimentation at […] nm), SYPRO orange thermal shift and CD; the IC50 is AlphaScreen inhibition of IMPα binding to IMPβ[…]

In the case of O=C1Nc2ccc(I)cc2/C1=C/c1cc(Br)c(O)c(Br)c1 [GW5074], the IC50 is reported as 10.3 ± 0.8 µM.
